How the values were obtained:
[1] = target: DGK α kinase (Homo sapiens, UniProt P23743); assay: In vitro DGK inhibition assay (ADP Glo) run by Reaction Biology Corp., DGK alpha; format: biochemical; details: isomer A, 2 nM kinase, 50 μM ATP, 500 uM DLG, 10-dose, 3-fold dilution starting at 1 μM, read-out: DGKalpha IC50
Description: (§1) DGK α and ζ kinase use ATP to phosphorylate the substrate 1,2-dilauroyl-sn-glycerol (DLG). ATP is converted to ADP as a result of this enzymatic reaction.
(§2) After the kinase reaction, an ATP-depletion reagent is added to terminate the kinase reaction and deplete any remaining ATP, leaving only ADP. Second, a detection reagent is added to simultaneously convert ADP to ATP and allow the newly synthesized ATP to be converted to light using a coupled luciferase/luciferin reaction.
(§3) DGK α and ζ kinase ADP Glo assays were ran by Reaction Biology Corp., 1 Great Valley Parkway, Suite 2, Malverm, 19355, PA, USA. Information provided by the service provider are the following: DGK α and ζ kinases were used at 2 nM final concentration. Reactions were carried out at 50 μM ATP. 500 uM of the substrate DLG (Dilauroyl-sn-glycerol) was used. Compounds were received at 10 mM DMSO stock solution and were tested in 10-dose IC50 duplicate with 3-fold serial dilution starting at 1 μM. A control compound, Calphostin C, was tested in 10-dose IC50 with 3-fold serial dilution starting at 100 μM.

[2] = target: DGK ζ kinase (Homo sapiens, UniProt Q13574); assay: In vitro DGK inhibition assay (ADP Glo) run by Reaction Biology Corp., DGK zeta; format: biochemical; details: isomer A, 2 nM kinase, 50 μM ATP, 500 uM DLG, 10-dose, 3-fold dilution starting at 1 μM, read-out: DGKzeta IC50
Sequence of DGK ζ kinase (Q13574 whole entry): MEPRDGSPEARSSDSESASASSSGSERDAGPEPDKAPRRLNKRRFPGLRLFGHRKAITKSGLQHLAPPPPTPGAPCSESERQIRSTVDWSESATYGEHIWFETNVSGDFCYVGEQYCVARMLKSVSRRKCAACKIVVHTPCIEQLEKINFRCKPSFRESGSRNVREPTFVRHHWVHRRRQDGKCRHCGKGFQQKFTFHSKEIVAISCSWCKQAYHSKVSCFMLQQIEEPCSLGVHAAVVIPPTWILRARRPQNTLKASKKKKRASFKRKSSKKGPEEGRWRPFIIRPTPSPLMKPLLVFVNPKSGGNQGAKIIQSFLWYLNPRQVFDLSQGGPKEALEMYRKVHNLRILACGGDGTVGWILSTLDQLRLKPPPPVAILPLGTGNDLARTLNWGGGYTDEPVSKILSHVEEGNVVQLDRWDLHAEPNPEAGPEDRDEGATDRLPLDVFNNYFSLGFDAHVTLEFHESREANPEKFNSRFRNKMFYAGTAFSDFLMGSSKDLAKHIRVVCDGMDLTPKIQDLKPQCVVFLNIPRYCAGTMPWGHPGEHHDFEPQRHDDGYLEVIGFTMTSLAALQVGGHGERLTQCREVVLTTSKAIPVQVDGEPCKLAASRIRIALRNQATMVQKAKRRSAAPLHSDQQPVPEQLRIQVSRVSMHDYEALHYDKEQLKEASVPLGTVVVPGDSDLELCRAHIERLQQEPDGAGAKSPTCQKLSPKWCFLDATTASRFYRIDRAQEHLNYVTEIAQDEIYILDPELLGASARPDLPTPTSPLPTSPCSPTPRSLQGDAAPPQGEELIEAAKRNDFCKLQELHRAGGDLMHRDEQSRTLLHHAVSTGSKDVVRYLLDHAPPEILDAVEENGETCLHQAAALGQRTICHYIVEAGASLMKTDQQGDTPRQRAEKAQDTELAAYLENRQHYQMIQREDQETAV
Description: as §1, §2, §3

[3] = tested on: MV-3 RFP cells; assay: T-cell TCB MV3 killing assay; format: cell-based, human; details: isomer A; for EC50: primary human T-cells + MCSP-TCB on MV-3 RFP cells, imaging over 120 hours, read-out: MSCP TCB killing MV-3 cells 5 d EC50; for Emax: Homo sapiens, MV-3, 120 h, read-out: MSCP TCB killing MV-3 cells 5 d Emax (%)
Description: All culturing steps are executed at 5% CO2, 37° C. and 95% humidity.
MV-3 RFP cells are cultured in MV-3 medium (DMEM+10% FBS, 1× PenStrep and 0.5 μg/mL Puromycin) for at least 3 weeks. Cultured MV-3 cells at 80% confluency are washed once with PBS−− and trypsinized until detached. Cells are then counted and resuspended to 1*10^5 cells/mL in T-cell medium (RPMI 1640+5% human serum+1 mM Sodium Pyruvate+50 μM 2-mercaptoethanol and 1× Pen-Strep). Cells are seeded with 100 μL/well into a 96-well plate (TTP, #92696), and placed for 40 minutes without moving at room temperature in order to achieve evenly distributed attachment of cells. Plates are then incubated until further use.
On the next day, expanded primary human T-cells are thawed and resuspended in T-cell medium to 4*10^6 cells/mL. For 3 hours, they are cultured in a 6-well plate with 6 mL per well at maximum. After culturing the T-cells, they are filtered through a cell strainer (Miltenyi Biotech, #130-041-407), counted again, and cell concentration is adjusted to 2*10^6 cells/mL.
MCSP-TCB or PBS are pre-diluted in T-cell medium (concentration depending on T-cell donor), 4 times more concentrated than the end-concentration. 60 μL/well of pre-dilutions are then distributed into a round bottom plate (Costar, #3799) according to plate layout. Compounds are added in a 9 pt dose response with the Tecan D300e Digital Dispenser, as well 4 times more concentrated than the end-concentration. DMSO concentration of all wells is adjusted to 0.8%, resulting in 0.2% as final concentration.
60 μL per well of T-cell suspension are added to the prepared round bottom plate and resuspended with a manual multichannel. 100 μL/well of the resuspended T-cell suspension including treatments are then transferred cautiously to the over-night cultured MV-3 cells according to plate layout. 100 μL T-cell medium only is added to the outer MV-3 wells only. Final compound DR is starting at 20 μM with a dilution factor of 3.333. Final TCB concentration is between […] and was determined for each T-cell donor individually by running TCB titrations. For each donor, a TCB concentration was chosen which corresponds to 10-20% of MV3 baseline cell killing in the absence of compound treatment. Positive control is the reference compound A1 which is added in a DR, as well as additional wells with only 20 μM. 20 μM of reference compound A1 represent the positive stimulator control, TCB only (DMSO wells) the neutral control.
After transfer of T-cells with treatment pre-dilutions, MV-3 cells are imaged by time-lapse microscopy using IncucyteZOOM™ (Essen BioScience, MI, USA). Imaging is performed every 3 hours for a total of 120 hours (10× objective, phase and red image channels, acquisition time 400 ms, Green/Red 4614 optical module). RFP object count per well is analysed in the IncucyteZOOM™ Software (Version 2019B Rev2) with a mask that was previously created and optimized for MV-3 cells. Raw data is exported as object count/well and values are normalized as % TCL compared to wells with MV-3 only, representing 100% growth and therefore 0% TCL.
Calculated 00 TCL values are analysed in Genedata Screener using Roche Normalization PCT_POS_CTRL with MCSP-TCB only set as Neutral Control and 20 μM of the reference compound A1 set as Stimulator Control/100%.
Induced TCL by compounds without TCB treatment or toxicity (observed in the PBS condition) were be flagged.

[4] = 20 μM reference compound A1 = 100%, MCSP-TCB only neutral control

Sequence of DGK α kinase (P23743 whole entry): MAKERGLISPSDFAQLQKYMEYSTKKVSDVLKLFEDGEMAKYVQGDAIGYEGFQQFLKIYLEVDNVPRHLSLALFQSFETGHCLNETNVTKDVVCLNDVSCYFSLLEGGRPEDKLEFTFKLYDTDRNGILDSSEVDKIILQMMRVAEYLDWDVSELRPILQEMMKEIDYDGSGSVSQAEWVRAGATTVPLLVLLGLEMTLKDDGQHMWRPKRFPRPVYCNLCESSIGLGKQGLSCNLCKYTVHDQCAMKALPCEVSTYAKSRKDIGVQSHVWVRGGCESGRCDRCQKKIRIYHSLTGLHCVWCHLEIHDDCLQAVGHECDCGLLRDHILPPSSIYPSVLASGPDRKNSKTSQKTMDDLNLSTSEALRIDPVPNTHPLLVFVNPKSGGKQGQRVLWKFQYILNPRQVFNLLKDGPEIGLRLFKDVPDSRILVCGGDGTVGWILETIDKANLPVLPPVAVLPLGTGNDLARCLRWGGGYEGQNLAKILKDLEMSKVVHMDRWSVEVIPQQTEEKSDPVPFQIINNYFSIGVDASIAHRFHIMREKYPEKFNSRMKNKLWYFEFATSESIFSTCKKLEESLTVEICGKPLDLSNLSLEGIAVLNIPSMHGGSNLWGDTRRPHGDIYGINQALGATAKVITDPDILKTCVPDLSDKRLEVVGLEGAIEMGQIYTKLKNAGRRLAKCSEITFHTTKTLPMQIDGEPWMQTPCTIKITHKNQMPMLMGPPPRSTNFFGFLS

With “2-methyl-2-[5-[(3S)-3-amino-5,5,7-trifluoro-2-oxo-1-[[4-(trifluoromethoxy)phenyl]methyl]-3,4-dihydro-1-benzazepin-8-yl]-1,3,4-oxadiazol-2-yl]propanenitrile and 2-methyl-2-[5-[(3R)-3-amino-5,5,7-trifluoro-2-oxo-1-[[4-(trifluoromethoxy)phenyl]methyl]-3,4-dihydro-1-benzazepin-8-yl]-1,3,4-oxadiazol-2-yl]propanenitrile [Example 2]” the IC50 [1] was 10.5 nM, the IC50 [2] was 22.1 nM and the “MSCP TCB killing MV-3 cells 5 d Emax (%)” value [3, 4] was 93%. For the same compound, the EC50 [3] was 43 nM.

With `CC(C)(c1nnc(-c2cc3c(cc2F)C(F)(F)CC(N)C(=O)N3Cc2ccc(Oc3ccccc3)cc2)o1)S(C)(=O)=O` (racemic) [Example 5, (3S)-3-amino-5,5,7-trifluoro-8-[5-(1-methyl-1-methylsulfonyl-ethyl)-1,3,4-oxadiazol-2-yl]-1-[(4-phenoxyphenyl)methyl]-3,4-dihydro-1-benzazepin-2-one and (3R)-3-amino-5,5,7-trifluoro-8-[5-(1-methyl-1-methylsulfonyl-ethyl)-1,3,4-oxadiazol-2-yl]-1-[(4-phenoxyphenyl)methyl]-3,4-dihydro-1-benzazepin-2-one] the IC50 [1] was 124 nM, the IC50 [2] was 57.9 nM and the Emax [3, 4] was 130%. The EC50 [3] was 372 nM.

Compound `CC(C)(C#N)c1nnc(-c2cc3c(cc2F)C(F)(F)CC(N)C(=O)N3Cc2ccc(-n3cc(C(F)(F)F)cn3)cc2)o1` (racemic) [Example 33, 2-[5-[(3S)-3-amino-5,5,7-trifluoro-2-oxo-1-[[4-[4-(trifluoromethyl)pyrazol-1-yl]phenyl]methyl]-3,4-dihydro-1-benzazepin-8-yl]-1,3,4-oxadiazol-2-yl]-2-methyl-propanenitrile and 2-[5-[(3R)-3-amino-5,5,7-trifluoro-2-oxo-1-[[4-[4-(trifluoromethyl)pyrazol-1-yl]phenyl]methyl]-3,4-dihydro-1-benzazepin-8-yl]-1,3,4-oxadiazol-2-yl]-2-methyl-propanenitrile] has an IC50 [1] of 8.2 nM and an IC50 [2] of 80.3 nM.

`COC(F)(c1nnc(-c2cc3c(cc2F)C(F)(F)C[C@H](N)C(=O)N3Cc2ccc(OC(F)(F)F)cc2)o1)C(F)(F)F` (single isomer, unassigned) [Example 4] showed an Emax [3, 4] of 94% and an EC50 [3] of 69 nM.

Compound `CC(C)(C)c1nnc(-c2cc3c(cc2F)C(F)(F)C[C@@H](N)C(=O)N3Cc2ccc(OC3CCCC3)cc2)o1` (single isomer, unassigned) [Example 7] has an IC50 [1] of 70.3 nM and an IC50 [2] of 49.5 nM.

For `CC(C)(c1nnc(-c2cc3c(cc2F)C(F)(F)C[C@@H](N)C(=O)N3Cc2ccc(-c3ccc(C(F)(F)F)cn3)cc2)o1)S(C)(=O)=O` (single isomer, unassigned) [Example 8], the Emax [3, 4] was 100%.

`COc1ccc(-c2ccc(CN3C(=O)[C@H](N)CC(F)(F)c4cc(F)c(-c5nnc(C(C)(C)C#N)o5)cc43)cc2)cc1` (single isomer, unassigned) [Example 9] gave an IC50 [1] of 43.6 nM, an IC50 [2] of 32.6 nM and an Emax [3, 4] of 92%.

Compound `COc1ccc(-c2ccc(CN3C(=O)[C@H](N)CC(F)(F)c4cc(F)c(-c5nnc(C(C)(C)S(C)(=O)=O)o5)cc43)cc2)cc1` (single isomer, unassigned) [Example 10] has an IC50 [1] of 93.1 nM and an IC50 [2] of 1060 nM.

With `CC(C)(C#N)c1nnc(-c2cc3c(cc2F)C(F)(F)C[C@@H](N)C(=O)N3Cc2ccc(-c3ccc(C(F)(F)F)cn3)cc2)o1` (single isomer, unassigned) [Example 12] the IC50 [1] was 108 nM, the IC50 [2] was 73 nM and the Emax [3, 4] was 103%.

`N[C@@H]1CC(F)(F)c2cc(F)c(-c3nnc(N4CCCC4)o3)cc2N(Cc2ccc(-c3noc(C(F)(F)F)n3)cc2)C1=O` (single isomer, unassigned) [Example 14] was tested, and the Emax [3, 4] was 113%.

`CC(C)(c1nnc(-c2cc3c(cc2F)C(F)(F)C[C@@H](N)C(=O)N3Cc2ccc(-c3noc(C(F)(F)F)n3)cc2)o1)S(C)(=O)=O` (single isomer, unassigned) [Example 16] showed an Emax [3, 4] of 84%.

Work on `N[C@@H]1CC(F)(F)c2cc(F)c(-c3nnc(N4CCOC5(CC5)C4)o3)cc2N(Cc2ccc(-c3noc(C(F)(F)F)n3)cc2)C1=O` (single isomer, unassigned) [Example 17] yielded an Emax [3, 4] of 105%.

Work on `CC(F)(F)c1ccc(-c2ccc(CN3C(=O)[C@H](N)CC(F)(F)c4cc(F)c(-c5nnc(C(C)(C)C#N)o5)cc43)cc2)nc1` (single isomer, unassigned) [Example 37] yielded an IC50 [1] of 46.2 nM and an IC50 [2] of 136 nM.

In the case of `CC(C)(C#N)c1nnc(-c2cc3c(cc2F)C(F)(F)C[C@@H](N)C(=O)N3Cc2ccc(-c3ccc(OC(F)F)cn3)cc2)o1` (single isomer, unassigned) [Example 41], the Emax [3, 4] is reported as 98%.
